Measurements taken from patent US20190201430A1, “TREATING OCULAR NEOVASCULARIZATION” (Massachusetts Eye and Ear Infirmary, priority 2014, published 2019).
Counter-ions that a name gives are not always drawn.

How the values were obtained:
caveolin-1 [1] = assay: Western blotting of H2O2 induced caveolin-1 phosphorylation in HUVEC; type: cell-based, human; details: for effect of inhibitor pretreatment on the inhibitory effect of AICAR on H2O2 induced caveolin-1 phosphorylation: DPY 8 μM or IODO 0.4 μM 1 h, AICAR 2 mM 2 h, H2O2 2 mM 30 min, FIG. 2
Description: (§1) HUVECs (Lonza, Walkersville, Md.) were cultured in Endothelial Growth Medium (EGM, Lonza, Walkersville, Md.). For all experiments, cells were grown at 37° C. in a humidified atmosphere of 5% CO2 and 95% air. Experiments were performed on cells below passage 3 to 6 grown to 80-90% confluence.
(§2) Protein extraction and western blotting were carried out as described previously (Morizane et al. JBC). Densitometric analysis of bands was performed using ImageJ software. Lane-loading differences were normalized by β-actin.
(§3) Cells were transfected with siRNAs using Nucleofection kit (Amaxa Biosysteins, Gaithersburg, Md.), following the manufacturer's protocol. The medium was changed at 6 h after transfection. The down-regulation of each protein was evaluated at 3 days after nucleofection.

c-Abl [2] = assay: Western blotting of H2O2 induced c-Abl phosphorylation in HUVEC; type: cell-based, human; details: DPY 8 μM or IODO 0.4 μM 1 h, AICAR 2 mM 2 h, H2O2 2 mM 30 min; FIG. 2
Description: as §1, §2, §3

AMPK [3] = assay: Western blotting of AMPK phosphorylation in HUVEC (Example 1); type: cell-based, human; details: DPY or IODO 1 h, then AICAR 2 mM 2 h, FIG. 2B,F
Description: as §1, §2

AMPK [4] = assay: Western blotting of AMPK phosphorylation in HUVECs (Example 2); type: cell-based, human
Description: (§4) Human umbilical vein endothelial cells (HUVECs) were cultured in endothelial growth medium (EGM, Lonza, Walkersville, Md.). Normal human dermal fibroblasts (NHDFs) were cultured in fibroblast basal medium (ATCC, Rockville, Md.). Cells were grown at 37° C. in a humidified atmosphere of 95% air, 5% CO2. Experiments were performed on cells below passage 3 to 6 grown to 80%-90% confluence.
(§5) Protein extraction and Western blotting were carried out as described previously (Morizane et al. JBC (26)). We conducted a densitometric analysis of bands using ImageJ software. Lane-loading differences were normalized by β-actin.

caveolin-1 [5] = assay: Western blotting of VEGF induced caveolin-1 phosphorylation in HUVECs; type: cell-based, human
Description: as §4, §5
(§6) Cells were transfected with siRNAs using a Nucleofection kit (Amaxa Biosystems, Gaithersburg, Md.), following the manufacturer's protocol. The medium was changed 6 h after transfection. The down-regulation of each protein was evaluated 3 days after nucleofection.

endothelial cells = details: in the absence of VEGF; cited from earlier work
prdx1/c-Abl complex [6] = assay: Co-immunoprecipitation of prdx1 and c-Abl under H2O2; type: cell-based, human; details: IODO before AICAR and H2O2; FIG. 6D
Description: Immunoprecipitation was performed with the Universal Magnetic Co-IP Kit (Active Motif North America, Carlsbad, Calif.), according to the manufacturer's instruction.
as §3

Akt = assay: Western blotting of Akt phosphorylation in HUVECs (VEGF); type: cell-based, human
Description: as §4, §5, §6

PTEN = assay: Western blotting of PTEN phosphorylation in HUVECs; type: cell-based, human; details: IODO 0.1 μM 60 min, then AICAR 2 mM; FIG. 9A,D
Description: as §4, §5

c-Abl [7] = assay: Western blotting of VEGF induced c-Abl phosphorylation in HUVECs; type: cell-based, human; details: IODO 0.4 μM 1 h, AICAR 2 mM 2 h, VEGF 12.5 ng/mL 10 min; FIG. 12D,E
Description: as §4, §5, §6

prdx1/c-Abl complex [8] = assay: Co-immunoprecipitation of prdx1 and c-Abl under VEGF; type: cell-based, human; details: AK inhibitor IODO; FIG. 15D,E
Description: Immunoprecipitation was performed with the Universal Magnetic Co-IP Kit (Active Motif North America, Carlsbad, Calif.) according to the manufacturer's instruction.
as §6

[9] = IODO 0.4 μM 1 h, AICAR 2 mM 2 h, VEGF 12.5 ng/mL 10 min, FIG. 12D,E

Question: Which results are given for `OCCN(CCO)c1nc(N2CCCCC2)c2nc(N(CCO)CCO)nc(N3CCCCC3)c2n1` [DPY, dipyridamole]?
Answer: effect of inhibitor pretreatment on the inhibitory effect of AICAR on H2O2 induced caveolin-1 phosphorylation (caveolin-1 [1]): significantly restored; effect of inhibitor pretreatment on the inhibitory effect of AICAR on H2O2 induced c-Abl phosphorylation (c-Abl [2]): significantly restored; AICAR induced AMPK phosphorylation after inhibitor pretreatment (AMPK [3]): inhibited AICAR induced AMPK phosphorylation dose-dependently; AICAR induced AMPK phosphorylation after DPY pretreatment (AMPK [4]; each concentration of DPY 1 h, then AICAR 2 mM 2 h, FIG. 12B): inhibited AMPK phosphorylation

Question: Which results are given for `Cc1ccc(NC(=O)c2ccc(CN3CCN(C)CC3)cc2)cc1Nc1nccc(-c2cccnc2)n1` [imatinib mesylate, Imatinib mesylate]?
Answer: H2O2 induced phosphorylation of caveolin-1 (caveolin-1 [1]; HUVEC, imatinib mesylate 10 or 20 uM for 24, 48 or 72 h, then H2O2 2 mM 30 min, FIG. 5A,B): inhibited H2O2 induced phosphorylation of both caveolin-1 and c-Abl dose- and time-dependently; VEGF-induced phosphorylation of caveolin-1 (caveolin-1 [5]; imatinib mesylate 10 or 20 μM for 24, 48 or 72 h, then VEGF 12.5 ng/mL 10 min, FIG. 14A,C): inhibited the VEGF-induced phosphorylation of caveolin-1 and c-Abl in a time and dose dependent manner

Question: For `N#Cc1c(O)c2c(-c3ccc(-c4ccccc4O)cc3)csc2[nH]c1=O` [A769662, 4-hydroxy-3-[4-(2-hydroxyphenyl)phenyl]-6-oxo-7H-thieno[2,3-b]pyridine-5-carbonitrile], which endothelial proliferation (endothelial cells) is on record?
Answer: suppressed endothelial proliferation

Question: What does the source list for `Nc1ncnc2c1c(I)cn2[C@@H]1O[C@H](CO)[C@@H](O)[C@H]1O` [IODO, 5-Iodotubericidin]?
Answer: effect of inhibitor pretreatment on the inhibitory effect of AICAR on H2O2 induced caveolin-1 phosphorylation (caveolin-1 [1]): significantly restored; effect of inhibitor pretreatment on the inhibitory effect of AICAR on H2O2 induced c-Abl phosphorylation (c-Abl [2]): significantly restored; AICAR induced AMPK phosphorylation after inhibitor pretreatment (AMPK [3]): inhibited AICAR induced AMPK phosphorylation dose-dependently; prdx1/c-Abl dissociation with IODO prior to H2O2 and AICAR (prdx1/c-Abl complex [6]): restored the dissociation; effect of IODO pretreatment on AICAR induced Akt dephosphorylation (Akt; IODO 0.1 μM 60 min, then AICAR 2 mM, FIG. 9A,C): suppressed and delayed; effect of IODO on the inhibitory effect of AICAR on VEGF induced Akt phosphorylation (Akt; [9]): significantly abolished; effect of IODO pretreatment on AICAR induced AMPK phosphorylation (AMPK [4]; IODO 0.1 μM 60 min, then AICAR 2 mM, FIG. 9A,B): suppressed and delayed; effect of IODO pretreatment on AICAR induced PTEN phosphorylation (PTEN): suppressed and delayed; effect of IODO on the inhibitory effect of AICAR on VEGF induced caveolin-1 phosphorylation (caveolin-1 [5]; [9]): significantly abolished; effect of IODO on the inhibitory effect of AICAR on VEGF induced c-Abl phosphorylation (c-Abl [7]): significantly abolished; effect of IODO on AICAR inhibition of VEGF induced prdx1/c-Abl dissociation (prdx1/c-Abl complex [8]): abrogated
